Measured values published in ChEMBL document CHEMBL5126506, “Coumarin-benzimidazole hybrids: A review of developments in medicinal chemistry” (Eur J Med Chem, 2022).
≈ marks a conversion by molar mass, not a printed value.

Tests used:
Hepatitis C virus = assay: Antiviral activity against HCV GT-1b infected in human Huh-5-2 cells carrying HCV subgenomic replicons assessed as inhibition of viral replication by quantitative RT-PCR assay; format: functional, organism-based, Hepacivirus hominis; conditions: subtype 1b
Shigella dysenteriae = assay: Antibacterial activity against Shigella dysenteriae ATCC 49345 assessed as bacterial growth inhibition at 50 ug/ml incubated for 24 hrs relative to control; format: functional; set-up: scale not given: the % may be the effect or the level left; conditions: dose 50 µg/ml
Salmonella typhi = assay: Antibacterial activity against Salmonella typhi ATCC 11778 assessed as bacterial growth inhibition at 50 ug/ml incubated for 24 hrs relative to control; format: functional, Salmonella enterica subsp. enterica serovar Typhi; set-up: scale not given: the % may be the effect or the level left; conditions: dose 50 µg/ml
Carbonic anhydrase 1 = Carbonic anhydrase 1 (Homo sapiens, UniProt P00915); assay: Inhibition of human carbonic anhydrase-1 by stopped flow CO2 hydrase assay
Chain of Carbonic anhydrase 1 (P00915 whole entry): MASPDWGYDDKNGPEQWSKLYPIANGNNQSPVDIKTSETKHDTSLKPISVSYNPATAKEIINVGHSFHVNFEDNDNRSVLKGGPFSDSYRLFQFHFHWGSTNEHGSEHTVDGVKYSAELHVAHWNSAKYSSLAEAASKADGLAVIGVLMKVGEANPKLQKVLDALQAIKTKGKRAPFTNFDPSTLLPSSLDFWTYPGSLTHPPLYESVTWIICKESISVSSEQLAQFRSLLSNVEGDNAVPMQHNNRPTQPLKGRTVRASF

Carbonic anhydrase 2 = Carbonic anhydrase 2 (Homo sapiens, UniProt P00918); assay: Inhibition of human carbonic anhydrase-2 by stopped flow CO2 hydrase assay
Rattus norvegicus [1] = assay: Antiinflammatory activity in formalin induced Wistar rat paw oedema model assessed as inhibition of paw oedema administered up to 6 hrs by plethysmograph analysis; format: functional, organism-based; set-up: scale not given: the % may be the effect or the level left
[2] = Anticancer activity against mouse L1210/0 cells assessed as cell growth inhibition measured after 3 days by CCK-8 assay; format: functional, cell-based; conditions: L1210/0, 72 h
CCRF-CEM = assay: Anticancer activity against human CEM/0 cells assessed as cell growth inhibition measured after 3 days by CCK-8 assay; format: functional, cell-based; conditions: 72 h
MOLT-4 = assay: Anticancer activity against human Molt4/C8 cells assessed as cell growth inhibition measured after 3 days by CCK-8 assay; format: functional, cell-based; conditions: MOLT-4, 72 h
MCF7 = assay: Anticancer activity against human MCF7 cells assessed as cell growth inhibition measured after 48 hrs by sulforhodamine B staining based analysis; format: functional
SF-268 = assay: Anticancer activity against human SF-268 cells assessed as cell growth inhibition measured after 48 hrs by sulforhodamine B staining based analysis; format: functional
NCI-H460 [3] = assay: Anticancer activity against human NCI-H460 cells assessed as cell growth inhibition measured after 48 hrs by sulforhodamine B staining based analysis; format: functional
[4] = Cytotoxicity against human WI-38 cells assessed as cell growth inhibition measured after 48 hrs by sulforhodamine B staining based analysis; format: toxicity
Bacillus subtilis = assay: Antibacterial activity against Bacillus subtilis assessed as zone of inhibition at 1000 ug/ml measured after 24 hrs by cup plate method; format: functional; conditions: read-out: DIZ
Pseudomonas aeruginosa = assay: Antibacterial activity against Pseudomonas aeruginosa assessed as zone of inhibition at 1000 ug/ml measured after 24 hrs by cup plate method; format: functional; conditions: read-out: DIZ
Aspergillus terreus = assay: Antifungal activity against Aspergillus terreus assessed as zone of inhibition at 1000 ug/ml measured after 24 hrs by cup plate method; format: functional; conditions: read-out: DIZ
Aspergillus flavus = assay: Antifungal activity against Aspergillus flavus assessed as zone of inhibition at 1000 ug/ml measured after 24 hrs by cup plate method; format: functional; conditions: read-out: DIZ
Staphylococcus aureus [5] = assay: Antibacterial activity against Staphylococcus aureus assessed as zone of inhibition at 1000 ug/ml measured after 24 hrs by cup plate method; format: functional; conditions: read-out: DIZ
Rattus norvegicus [6] = assay: Antiinflammatory activity in formalin induced fasted albino rat paw oedema model assessed as inhibition of paw oedema at 100 mg/kg, po measured after 4 hrs by plethysmograph analysis relative to control; format: functional; set-up: scale not given: the % may be the effect or the level left
Escherichia coli = assay: Antibacterial activity against Escherichia coli assessed as zone of inhibition at 1000 ug/ml measured after 24 hrs by cup plate method; format: functional; conditions: read-out: DIZ
Aspergillus niger = assay: Antifungal activity against Aspergillus niger assessed as zone of inhibition at 1000 ug/ml measured after 24 hrs by cup plate method; format: functional; conditions: read-out: DIZ
[7] = Antioxidant activity assessed as DPPH radical scavenging activity incubated for 30 mins in dark condition by spectrophotometrical analysis; format: functional
HeLa = assay: Anticancer activity against human HeLa cells assessed as cell growth inhibition by SRB method; format: functional
SMMC-7721 = assay: Anticancer activity against human SMMC-7721 cells assessed as cell growth inhibition measured after 72 hrs by MTT assay; format: functional, cell-based; conditions: SMMC-7721, 72 h
NCI-H460 [8] = assay: Anticancer activity against human NCI-H460 cells assessed as cell growth inhibition measured after 72 hrs by MTT assay; format: functional, cell-based; conditions: NCI-H460, 72 h
A549 = assay: Anticancer activity against human A549 cells assessed as cell growth inhibition measured after 72 hrs by MTT assay; format: functional, cell-based; conditions: A549, 72 h
[9] = Anticancer activity against human U-87 MG cells assessed as cell growth inhibition measured after 72 hrs by MTT assay; format: functional, cell-based, U-87MG ATCC
Staphylococcus aureus [10] = assay: Antibacterial activity against beta lactamase positive Staphylococcus aureus ATCC 25923 assessed as zone of inhibition at 0.5 mg/ml incubated for 18 hrs by Kirby-Bauer disk diffusion method; format: functional; conditions: read-out: DIZ
HT-29 = assay: Anticancer activity against human HT-29 cells assessed as cell growth inhibition measured after 72 hrs by MTT assay; format: functional, cell-based; conditions: HT-29, 72 h

Compound: O=c1oc2ccc(Br)cc2cc1CSc1nc2ccccc2[nH]1
- EC50 (Hepatitis C virus): 4 µM
- Activity (Shigella dysenteriae): 100%
- Activity (Salmonella typhi): 100%

Compound: O=c1cc(Cn2c[n+](CCCCn3c[n+](Cc4cc(=O)oc5cc(O)ccc45)c4ccccc43)c3ccccc32)c2ccc(O)cc2o1
- IC50 (Carbonic anhydrase 1): 81 µM
- IC50 (Carbonic anhydrase 2): 94 µM

Compound: O=c1oc2ccc(Cl)cc2cc1-c1nc2ccccc2[nH]1
- Activity (Rattus norvegicus [1]): 46.75%

Compound: Cc1ccc2oc(=O)c(-c3nc4cc(Cl)ccc4[nH]3)cc2c1
- IC50 [2]: 5.1 µg/mL (≈ 16.4 µM)
- IC50 (CCRF-CEM): 1.9 µg/mL (≈ 6.11 µM)
- IC50 (MOLT-4): 3.6 µg/mL (≈ 11.6 µM)

Compound: CC(=O)n1c(-c2cc3ccccc3oc2=O)nc2ccccc21
- GI50 (MCF7): 22.7 µM
- GI50 (SF-268): 31.5 µM
- GI50 (NCI-H460 [3]): 36.5 µM
- GI50 at 48 h [4]: > 100 µM

Compound: Cc1c(C2SCC(=O)N2Nc2nc3ccccc3[nH]2)c(=O)oc2cc(O)ccc12 (configuration not stated)
- zone of inhibition at 1000 µg/mL (Bacillus subtilis): 13 mm
- zone of inhibition at 1000 µg/mL (Pseudomonas aeruginosa): 13 mm
- zone of inhibition at 1000 µg/mL (Aspergillus terreus): 13 mm
- zone of inhibition at 1000 µg/mL (Aspergillus flavus): 13 mm
- zone of inhibition at 1000 µg/mL (Staphylococcus aureus [5]): 13 mm
- Activity (Rattus norvegicus [6]): 20%
- zone of inhibition at 1000 µg/mL (Escherichia coli): 13 mm
- zone of inhibition at 1000 µg/mL (Aspergillus niger): 13 mm

Compound: Cc1cc(C(C)(C)C)c(O)c(C(C)(C)C)c1 [BUTYLATED HYDROXYTOLUENE]
- EC50 [7]: 23.4 µM

Compound: O=c1oc2ccccc2c2c(O)cn3c4ccccc4nc3c12
- GI50 (MCF7): 24.1 µM
- GI50 (SF-268): 26.1 µM
- GI50 (NCI-H460 [3]): 30.8 µM
- GI50 at 48 h [4]: 25.2 µM

Compound: COc1ccc2oc(=O)cc(-c3nc4ccccc4n3S(=O)(=O)c3ccc(C)cc3)c2c1
- GI50 (HeLa): 35 µg/mL (≈ 78.4 µM)

Compound: O=C(/C(Cl)=N/Nc1ccc(Cl)cc1Cl)n1c(-c2cc3ccccc3oc2=O)nc2ccccc21
- IC50 (SMMC-7721): 0.22 µM
- IC50 (NCI-H460 [8]): 0.36 µM
- IC50 (A549): 0.25 µM
- IC50 [9]: 0.29 µM

Compound: CO[C@@H]1[C@@H](OC(N)=O)[C@@H](O)[C@H](Oc2ccc3c(O)c(NC(=O)c4ccc(O)c(CC=C(C)C)c4)c(=O)oc3c2C)OC1(C)C [NOVOBIOCIN]
- zone of inhibition at 500 µg/mL (Staphylococcus aureus [10]): 25 mm

Compound: O=c1cc(C[n+]2cn(Cc3ccc4ccccc4c3)c3ccccc32)c2ccc(O)cc2o1
- IC50 (Carbonic anhydrase 1): 5.34 µM
- IC50 (Carbonic anhydrase 2): 6.01 µM

Compound: O=C(Cc1cc(=O)oc2c([N+](=O)[O-])cccc12)Nc1nc2ccccc2[nH]1
- EC50 [7]: 0.08 µM

Compound: O=c1cc(C[n+]2cn(Cc3ccc4ccccc4c3)c3ccccc32)c2ccc(O)c(O)c2o1
- IC50 (Carbonic anhydrase 1): 4.99 µM
- IC50 (Carbonic anhydrase 2): 6.01 µM

Compound: O=c1oc2cc(O)ccc2cc1/C=N/Nc1nc2ccccc2[nH]1
- zone of inhibition at 1000 µg/mL (Bacillus subtilis): 13 mm
- zone of inhibition at 1000 µg/mL (Pseudomonas aeruginosa): 13 mm
- zone of inhibition at 1000 µg/mL (Aspergillus terreus): 13 mm
- zone of inhibition at 1000 µg/mL (Aspergillus flavus): 13 mm
- zone of inhibition at 1000 µg/mL (Staphylococcus aureus [5]): 13 mm
- Activity (Rattus norvegicus [6]): 39%
- zone of inhibition at 1000 µg/mL (Escherichia coli): 13 mm
- zone of inhibition at 1000 µg/mL (Aspergillus niger): 13 mm

Compound: O=C(CCl)n1c(-c2cc3ccccc3oc2=O)nc2ccccc21
- IC50 (HT-29): 0.57 µM
- IC50 (NCI-H460 [8]): 0.59 µM
- IC50 (A549): 0.29 µM
- IC50 [9]: 0.34 µM

Compound: O=C1O[C@H]([C@@H](O)CO)C(O)=C1O [ASCORBIC ACID]
- EC50 [7]: 0.03 µM

Compound: O=c1oc2ccc(Cl)cc2cc1CSc1nc2ccc([N+](=O)[O-])cc2[nH]1
- Activity (Shigella dysenteriae): 100%
- Activity (Salmonella typhi): 100%

Compound: O=C1CSC(c2cc3ccc(O)cc3oc2=O)N1Nc1nc2ccccc2[nH]1 (configuration not stated)
- zone of inhibition at 1000 µg/mL (Bacillus subtilis): 13 mm
- zone of inhibition at 1000 µg/mL (Pseudomonas aeruginosa): 13 mm
- zone of inhibition at 1000 µg/mL (Aspergillus terreus): 13 mm
- zone of inhibition at 1000 µg/mL (Aspergillus flavus): 13 mm
- zone of inhibition at 1000 µg/mL (Staphylococcus aureus [5]): 13 mm
- Activity (Rattus norvegicus [6]): 48%
- zone of inhibition at 1000 µg/mL (Escherichia coli): 13 mm
- zone of inhibition at 1000 µg/mL (Aspergillus niger): 13 mm

Compound: O=c1cc(Cc2nc3ccccc3[nH]2)c2cccc([N+](=O)[O-])c2o1
- EC50 [7]: 0.17 µM

Compound: CC(=O)OC[C@H]1O[C@@H](n2c(SCc3cc4ccccc4oc3=O)nc3cc(Cl)c(Cl)cc32)[C@H](OC(C)=O)[C@@H](OC(C)=O)[C@@H]1OC(C)=O
- EC50 (Hepatitis C virus): 3.1 µM
